# Values of other authors in patent publication US20220125792A1, “USE OF COMPOSITION CONTAINING CDK4/6 INHIBITOR IN COMBINATION WITH ANASTROZOLE IN PREPARATION OF MEDICAMENT FOR TREATING TUMOR DISEASES” (Jiangsu Hengrui Medicine Co., Ltd., priority 2019, published 2022).
# Key:
# [1] = tested on: systemic aromatization and plasma estrogen level; details: letrozole 2.5 mg once a day, postmenopausal women with metastatic breast cancer
smiles,measurement,setting,value
N#Cc1ccc(C(c2ccc(C#N)cc2)n2cncn2)cc1 [letrozole],"inhibition of systemic aromatization and plasma estrogen level, compared with anastrozole (1 mg daily)",[1],more effective systemic aromatization and plasma estrogen level inhibitor than anastrozole
same,"total remission rate (ORR), letrozole versus anastrozole",advanced breast cancer; European Journal of Cancer 39 (2003) 2318-2327,significantly superior to anastrozole
same,"response of advanced breast cancer, second-line hormonal therapy, letrozole versus anastrozole",advanced breast cancer; open randomized trial,responded more strongly to letrozole than to anastrozole
